The values below come from patent publication US10807970B2 (priority 2016, dated 2020).

Where two headings read alike, the source gives them in different places.

This assay deals with human σ1 receptor (Homo sapiens, UniProt Q99720). The experiment in a line: Human σ1 receptor radioligand assay ([3H](+)-pentazocine, transfected HEK-293 membranes). Format: binding. Further details: μ and σ1 dual binding: key to the marks not given beside the values. To be noted: one class symbol for both Ki-σ1 (human σ1 receptor, A1) and Ki-μ (human μ-opioid receptor, A2). The method, then: Human σ1 Receptor Radioligand Assay
To investigate binding properties of test compounds to human σ1 receptor, transfected HEK-293 membranes and [^3H](+)-pentazocine (Perkin Elmer, NET-1056), as the radioligand, were used. The assay was carried out with 7 μg of membrane suspension, 5 nM of [^3H](+)-pentazocine in either absence or presence of either buffer or 10 μM Haloperidol for total and non-specific binding, respectively. Binding buffer contained Tris-HCl 50 mM at pH 8. Plates were incubated at 37° C. for 120 minutes. After the incubation period, the reaction mix was then transferred to MultiScreen HTS, FC plates (Millipore), filtered and plates were washed 3 times with ice-cold 10 mM Tris-HCL (pH7.4). Filters were dried and counted at approximately 40% efficiency in a MicroBeta scintillation counter (Perkin-Elmer) using EcoScint liquid scintillation cocktail

The mark [1] stands for this setting: read-out: μ and σ1 dual binding.

human σ1 receptor, sequence (Q99720 whole entry): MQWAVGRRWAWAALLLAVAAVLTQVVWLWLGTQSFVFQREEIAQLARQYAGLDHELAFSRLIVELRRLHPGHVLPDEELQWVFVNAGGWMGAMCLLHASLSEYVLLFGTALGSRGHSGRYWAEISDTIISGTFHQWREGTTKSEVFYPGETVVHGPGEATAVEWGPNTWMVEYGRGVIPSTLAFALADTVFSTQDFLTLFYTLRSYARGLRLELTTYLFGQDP

For the molecule `CC1(C)CC(C(=O)c2ccccn2)(N2CCN(CCc3ccccc3)CC2)CCO1` (stereo not shown) [Example 54, (2,2-dimethyl-4-(4-phenethylpiperazin-1-yl)tetrahydro-2H-pyran-4-yl)(pyridin-2-yl)methanone], where the note is “μ and σ1 dual binding”, the Ki is less than 500 nM. `CCC1(N2CCN(CCc3cccc(F)c3F)CC2)CCOC(C)(C)C1` (stereo not shown) [Example 100, 1-(2,3-difluorophenethyl)-4-(4-ethyl-2,2-dimethyltetrahydro-2H-pyran-4-yl)piperazine]: the Ki (μ and σ1 dual binding) is less than 500 nM.

Take `CC(C)OCCN1CCC([C@@]2(C(=O)c3ccccn3)CCO[C@@H](C)C2)CC1` [Example 248, ((2S,4R)-4-(1-(2-isopropoxyethyl)piperidin-4-yl)-2-methyltetrahydro-2H-pyran-4-yl)(pyridin-2-yl)methanone]: where the note is “μ and σ1 dual binding”, the Ki was less than 500 nM. `c1ccc(C2(N3CCN(Cc4ccccn4)CC3)CCOC3(CCCC3)C2)cc1` (stereo not shown) [Example 120, 1-(9-phenyl-6-oxaspiro[4.5]decan-9-yl)-4-(pyridin-2-ylmethyl)piperazine]: the “μ and σ1 dual binding” value is recorded as “++”. `CC(C)CCN1CCN(C2(C(=O)c3ccccn3)CCOC(C)(C)C2)CC1` (stereo not shown) [Example 64, (4-(4-isopentylpiperazin-1-yl)-2,2-dimethyltetrahydro-2H-pyran-4-yl)(pyridin-2-yl)methanone] showed a Ki (μ and σ1 dual binding) of less than 500 nM. On to `CN(Cc1ccccc1)C1CN(C2(C(=O)c3ccccn3)CCOC(C)(C)C2)C1` (stereo not shown) [Example 19, (4-(3-(benzyl(methyl)amino)azetidin-1-yl)-2,2-dimethyltetrahydro-2H-pyran-4-yl)(pyridin-2-yl)methanone], for which the “μ and σ1 dual binding” value is given as “++”. Still for that read-out and setting: to `O=C(c1ccccn1)C1(N2CCN(Cc3ccccc3)CC2)CCOC1` (stereo not shown) [Example 20, (3-(4-benzylpiperazin-1-yl)tetrahydrofuran-3-yl)(pyridin-2-yl)methanone] belongs “++”. `N#Cc1cccc(CN2CCN(C3(C(=O)c4ccccn4)CCOCC3)CC2)c1` [Example 193, 3-((4-(4-picolinoyltetrahydro-2H-pyran-4-yl)piperazin-1-yl)methyl)benzonitrile]: the Ki under setting [1] was greater than 500 nM. Regarding `CC(C)CCN1CCN(C2(C(=O)c3ccccn3)CCOCC2)CC1` [Example 177, (4-(4-isopentylpiperazin-1-yl)tetrahydro-2H-pyran-4-yl)(pyridin-2-yl)methanone], the “μ and σ1 dual binding” value is listed as “++”. For the molecule `CC1(C2CCN(Cc3ccccc3)CC2)CCOCC1` [Example 165, 1-benzyl-4-(4-methyltetrahydro-2H-pyran-4-yl)piperidine], the Ki under setting [1] is greater than 500 nM.

Consider `C[C@@H]1C[C@](C(=O)c2ccccn2)(N2CCN(CCc3ccccc3)CC2)CCO1` [Example 240, ((2R,4R)-2-methyl-4-(4-phenethylpiperazin-1-yl)tetrahydro-2H-pyran-4-yl)(pyridin-2-yl)methanone], for which the “μ and σ1 dual binding” value is recorded as “++”.

Take `CC1(C)CC(C(=O)c2ccccn2)(N2CC3CN(Cc4ccccc4)CC3C2)CCO1` (stereo not shown) [Example 18, (4-(5-benzylhexahydropyrrolo[3,4-c]pyrrol-2(1H)-yl)-2,2-dimethyltetrahydro-2H-pyran-4-yl)(pyridin-2-yl)methanone]: the Ki (μ and σ1 dual binding) is less than 500 nM.

As for `CC(C)OCCN(C)[C@@H]1CCN([C@@]2(C(=O)c3ccccn3)CCOC(C)(C)C2)C1` [Example 145, ((S)-4-((R)-3-((2-isopropoxyethyl)(methyl)amino)pyrrolidin-1-yl)-2,2-dimethyltetrahydro-2H-pyran-4-yl)(pyridin-2-yl)methanone], the Ki under setting [1] is greater than 500 nM.

Consider `C=CC1(N2CCN(CCc3ccccc3)CC2)CCOC(C)(C)C1` (stereo not shown) [Example 45, 1-(2,2-dimethyl-4-vinyltetrahydro-2H-pyran-4-yl)-4-phenethylpiperazine], for which, under setting [1], the Ki was greater than 500 nM. Still for that read-out and setting: to `C[C@@H]1C[C@](C(=O)c2ccccn2)(N2CCN(Cc3ccccc3)CC2)CCO1` [Example 154, ((2R,4R)-4-(4-benzylpiperazin-1-yl)-2-methyltetrahydro-2H-pyran-4-yl)(pyridin-2-yl)methanone] belongs less than 500 nM; to `CC(C)CCN1CCN([C@]2(C(=O)c3ccccn3)CCO[C@@H](C)C2)CC1` [Example 98], less than 500 nM; to `CC[C@]1(N2CCN(CCc3ccccc3)CC2)CCOC(C)(C)C1` [Example 112, (S)-1-(4-ethyl-2,2-dimethyltetrahydro-2H-pyran-4-yl)-4-phenethylpiperazine], less than 500 nM. For `C[C@H]1C[C@](C(=O)c2ccccn2)(N2CCN(Cc3ccccc3)CC2)CCO1` [Example 27], the Ki under setting [1] is less than 500 nM. Consider `CC1(N2CCN(Cc3ccc(F)cc3)CC2)CCOCC1` [Example 182, 1-(4-fluorobenzyl)-4-(4-methyltetrahydro-2H-pyran-4-yl)piperazine], for which the “μ and σ1 dual binding” value is “++”.

For `CC1(C)CC(C(=O)c2ccccn2)(N2CCN(CCc3ccncc3Cl)CC2)CCO1` (stereo not shown) [Example 57, (4-(4-(2-(3-chloropyridin-4-yl)ethyl)piperazin-1-yl)-2,2-dimethyltetrahydro-2H-pyran-4-yl)(pyridin-2-yl)methanone], the Ki (μ and σ1 dual binding) was less than 500 nM. Take `CC(C)CCN(C)[C@@H]1CCN([C@]2(C(=O)c3ccccn3)CCOC(C)(C)C2)C1` [Example 149, ((R)-4-((R)-3-(isopentyl(methyl)amino)pyrrolidin-1-yl)-2,2-dimethyltetrahydro-2H-pyran-4-yl)(pyridin-2-yl)methanone]: the “μ and σ1 dual binding” value is “++”. On to `CC(c1ccccc1)N1CCN(C2(C(=O)c3ccccn3)CCOC(C)(C)C2)CC1` (stereo not shown) [Example 62, (2,2-dimethyl-4-(4-(1-phenylethyl)piperazin-1-yl)tetrahydro-2H-pyran-4-yl)(pyridin-2-yl)methanone], for which, for the setting “μ and σ1 dual binding”, the Ki was less than 500 nM. Take `CC[C@@]1(N2CCN(CCOC(C)C)CC2)CCO[C@@H](C)C1` [Example 158, 1-((2S,4R)-4-ethyl-2-methyltetrahydro-2H-pyran-4-yl)-4-(2-isopropoxyethyl)piperazine]: the “μ and σ1 dual binding” value was “++”. On to `CCOCCN1CCC(C2(C(=O)c3ccccn3)CCOC(C)(C)C2)CC1` (stereo not shown) [Example 104], for which the “μ and σ1 dual binding” value is recorded as “++”. The same measure, in the same setting: next, `CC[C@]1(N2CCN(CCc3ccccc3)CC2)CCO[C@@H](C)C1` (stereo in doubt) [Example 46, 1-(4-ethyl-2-methyltetrahydro-2H-pyran-4-yl)-4-phenethylpiperazine]: “++”; `CC(C)OCCN1CCN(C2(C(=O)c3ccccc3)CCOC(C)(C)C2)CC1` (stereo not shown) [Example 13, (4-(4-(2-isopropoxyethyl)piperazin-1-yl)-2,2-dimethyltetrahydro-2H-pyran-4-yl)(phenyl)methanone]: “++”. `CC(C)CN1CCC(C2(c3ccccn3)CCOC(C)(C)C2)CC1` (stereo not shown) [Example 126, 2-(4-(1-isobutylpiperidin-4-yl)-2,2-dimethyltetrahydro-2H-pyran-4-yl)pyridine] displayed a Ki (μ and σ1 dual binding) greater than 500 nM. As to `CC(C)CCN1CCN([C@@]2(C)CCO[C@@H](C)C2)CC1` [Example 161, 1-((2S,4S)-2,4-dimethyltetrahydro-2H-pyran-4-yl)-4-isopentylpiperazine], the “μ and σ1 dual binding” value is recorded as “++”. In the case of `CC(C)C1(N2CCN(Cc3ccccc3)CC2)CCOC(C)(C)C1` (stereo not shown) [Example 43, 1-benzyl-4-(4-isopropyl-2,2-dimethyltetrahydro-2H-pyran-4-yl)piperazine], the Ki (μ and σ1 dual binding) was less than 500 nM.

For `CC(C)OCCN1CCC([C@]2(C(=O)c3ccccn3)CCO[C@H](C)C2)CC1` [Example 249, ((2R,4S)-4-(1-(2-isopropoxyethyl)piperidin-4-yl)-2-methyltetrahydro-2H-pyran-4-yl)(pyridin-2-yl)methanone], the “μ and σ1 dual binding” value is given as “++”. The same measure, in the same setting: to `OC(c1ccccn1)C1(C2CCN(Cc3ccccc3)CC2)CCOCC1` (stereo not shown) [Example 130, (4-(1-benzylpiperidin-4-yl)tetrahydro-2H-pyran-4-yl)(pyridin-2-yl)methanol] belongs “++”. Take `CC(C)CCN1CCN([C@]2(C(=O)c3ccccn3)CCO[C@H](C)C2)CC1` [Example 246, ((2R,4R)-4-(4-isopentylpiperazin-1-yl)-2-methyltetrahydro-2H-pyran-4-yl)(pyridin-2-yl)methanone]: the Ki under setting [1] was less than 500 nM. Consider `CC(C)CCN1CCN([C@@]2(C(=O)c3ccccn3)CCOC(C)(C)C2)CC1` [Example 132, (S)-(4-(4-isopentylpiperazin-1-yl)-2,2-dimethyltetrahydro-2H-pyran-4-yl)(pyridin-2-yl)methanone], for which, for the setting “μ and σ1 dual binding”, the Ki was less than 500 nM. In the case of `O=C(c1ccccn1)C1(C2CCN(Cc3ccccc3)CC2)CCOCC1` [Example 21, (4-(1-benzylpiperidin-4-yl)tetrahydro-2H-pyran-4-yl)(pyridin-2-yl)methanone], the “μ and σ1 dual binding” value is on record as “++”. Turning to `CC(C)COCCN1CCN([C@@]2(C(=O)c3ccccn3)CCOC(C)(C)C2)CC1` [Example 136, (S)-(4-(4-(2-isobutoxyethyl)piperazin-1-yl)-2,2-dimethyltetrahydro-2H-pyran-4-yl)(pyridin-2-yl)methanone], the “μ and σ1 dual binding” value is listed as “++”.

Where the note is “μ and σ1 dual binding”, `CC(C)OCCN1CCN(C2(C(=O)c3cccc(C(F)(F)F)n3)CCOC(C)(C)C2)CC1` (stereo not shown) [Example 16, (4-(4-(2-isopropoxyethyl)piperazin-1-yl)-2,2-dimethyltetrahydro-2H-pyran-4-yl)(6-(trifluoromethyl)pyridin-2-yl)methanone] registered a Ki of less than 500 nM. On the same count and under the same terms, to `CCCC1(N2CCN(CCc3ccccc3)CC2)CCOC(C)(C)C1` (stereo not shown) [Example 41, 1-(2,2-dimethyl-4-propyltetrahydro-2H-pyran-4-yl)-4-phenethylpiperazine] belongs less than 500 nM.
